Measurements: PubChem BioAssay AID248 (DTP/NCI, 2004)
Inconclusive results and toxic doses are left out.

Test system: L1210 leukemia ip in BDF1 mice, survival T/C
Test: NCI In Vivo Anticancer Drug Screen. Data for tumor model L1210 Leukemia (intraperitoneal) in B6D2F1 (BDF1) mice
Details: endpoint: mean survival time, higher = longer survival
Procedure, shortened: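 Read-out is survival time, reported as the treated-group measurement over the vehicle-control measurement.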

[1] = dose: 100.0 mg/kg/injection, schedule: Q01DX009 (ip), vehicle: Klucel (hydroxypropylcellulose) (HPC)
[2] = dose: 100.0 mg/kg/injection, schedule: Q04DX003 (ip), vehicle: Klucel (hydroxypropylcellulose) (HPC)
[3] = dose: 200.0 mg/kg/injection, schedule: Q01DX009 (ip), vehicle: Klucel (hydroxypropylcellulose) (HPC)
[4] = dose: 200.0 mg/kg/injection, schedule: Q04DX003 (ip), vehicle: Klucel (hydroxypropylcellulose) (HPC)
[5] = dose: 400.0 mg/kg/injection, schedule: Q01DX009 (ip), vehicle: Klucel (hydroxypropylcellulose) (HPC)
[6] = dose: 400.0 mg/kg/injection, schedule: Q04DX003 (ip), vehicle: Klucel (hydroxypropylcellulose) (HPC)
[7] = dose: 100.0 mg/kg/injection, schedule: Q04DX002 (ip), vehicle: saline with Tween-80
[8] = dose: 200.0 mg/kg/injection, schedule: Q04DX002 (ip), vehicle: saline with Tween-80
[9] = dose: 400.0 mg/kg/injection, schedule: Q04DX002 (ip), vehicle: saline with Tween-80
[10] = dose: 100.0 mg/kg/injection, schedule: Q01DX001 (ip), vehicle: carboxymethylcellulose (CMC)
[11] = dose: 200.0 mg/kg/injection, schedule: Q01DX001 (ip), vehicle: carboxymethylcellulose (CMC)
[12] = dose: 400.0 mg/kg/injection, schedule: Q01DX001 (ip), vehicle: carboxymethylcellulose (CMC)
[13] = dose: 200.0 mg/kg/injection, schedule: Q01DX001 (ip), vehicle: saline with Tween-80
[14] = dose: 100.0 mg/kg/injection, schedule: Q01DX001 (ip), vehicle: saline
[15] = dose: 200.0 mg/kg/injection, schedule: Q01DX001 (ip), vehicle: saline
[16] = dose: 400.0 mg/kg/injection, schedule: Q01DX001 (ip), vehicle: saline

## CCCCCOc1ccc(C(=O)CC(=O)OCC)cc1
[1]
  T/C: 98 % of control
[2]
  T/C: 93 % of control
[3]
  T/C: 104 % of control
[4]
  T/C: 95 % of control
[5]
  T/C: 93 % of control
[6]
  T/C: 93 % of control

## O=C(Oc1c(Cl)cc([N+](=O)[O-])cc1[N+](=O)[O-])Sc1ccccc1
[7]
  T/C: 103 % of control
[8]
  T/C: 100 % of control
[9]
  T/C: 100 % of control

## O=C(O)c1cc(I)c(OCc2ccccc2)c(I)c1
[10]
  T/C: 100 % of control
[11]
  T/C: 94 % of control
[12]
  T/C: 96 % of control

## C1CCC(=C(C2CCCC2)C2CCCC2)C1
dose: 75.0 mg/kg/injection, schedule: Q04DX002 (ip), vehicle: saline with Tween-80
  T/C: 105 % of control
dose: 150.0 mg/kg/injection, schedule: Q04DX002 (ip), vehicle: saline with Tween-80
  T/C: 99 % of control
dose: 300.0 mg/kg/injection, schedule: Q04DX002 (ip), vehicle: saline with Tween-80
  T/C: 99 % of control

## CC(C)(C)C1=CC(=O)C(Cl)(C(C)(C)C)C(Cl)C1=O (configuration not stated)
dose: 100.0 mg/kg/injection, schedule: Q01DX001 (ip), vehicle: saline with Tween-80
  T/C: 97 % of control
[13]
  T/C: 90 % of control

## COc1c(Cl)c(C)c(Cl)c(C)c1C#CC(=O)O
dose: 100.0 mg/kg/injection, schedule: Q01DX001 (ip), vehicle: Klucel (hydroxypropylcellulose) (HPC)
  T/C: 92 % of control
[2]
  T/C: 95 % of control
dose: 200.0 mg/kg/injection, schedule: Q01DX001 (ip), vehicle: Klucel (hydroxypropylcellulose) (HPC)
  T/C: 97 % of control
[4]
  T/C: 92 % of control
dose: 400.0 mg/kg/injection, schedule: Q01DX001 (ip), vehicle: Klucel (hydroxypropylcellulose) (HPC)
  T/C: 101 % of control

## CC1C(O)c2ccccc2OC1N1CCOCC1 (configuration not stated)
dose: 50.0 mg/kg/injection, schedule: Q04DX002 (ip), vehicle: Klucel (hydroxypropylcellulose) (HPC)
  T/C: 96 % of control
dose: 100.0 mg/kg/injection, schedule: Q04DX002 (ip), vehicle: Klucel (hydroxypropylcellulose) (HPC)
  T/C: 100 % of control
dose: 200.0 mg/kg/injection, schedule: Q04DX002 (ip), vehicle: Klucel (hydroxypropylcellulose) (HPC)
  T/C: 93 % of control

## CCNc1nc(NCC)c(Cl)c(C(Cl)(Cl)Cl)n1
dose: 50.0 mg/kg/injection, schedule: Q01DX009 (ip), vehicle: Klucel (hydroxypropylcellulose) (HPC)
  T/C: 102 % of control
[1]
  T/C: 102 % of control
[3]
  T/C: 105 % of control

## CC(C)(CBr)CC(=O)NC1CCCCC1
dose: 50.0 mg/kg/injection, schedule: Q01DX001 (ip), vehicle: saline
  T/C: 98 % of control
[14]
  T/C: 98 % of control
[15]
  T/C: 96 % of control
[16]
  T/C: 104 % of control

## O=C(O)C(=S)Cc1cn[nH]n1
[14]
  T/C: 103 % of control
[16]
  T/C: 100 % of control

## Cn1c(=O)c2[nH]cnc2n(C)c1=O
dose: 18.25 mg/kg/injection, schedule: Q01DX Z (ip), vehicle: carboxymethylcellulose (CMC)
  T/C: 105 % of control
dose: 36.5 mg/kg/injection, schedule: Q01DX Z (ip), vehicle: carboxymethylcellulose (CMC)
  T/C: 107 % of control
dose: 63.0 mg/kg/injection, schedule: Q01DX Z (ip), vehicle: carboxymethylcellulose (CMC)
  T/C: 92 % of control
[10]
  T/C: 98 % of control
dose: 126.0 mg/kg/injection, schedule: Q01DX Z (ip), vehicle: carboxymethylcellulose (CMC)
  T/C: 98 % of control
[11]
  T/C: 98 % of control
[12]
  T/C: 96 % of control

## CCCOP(=S)(N1CC1(C)C)N1CC1(C)C (configuration not stated)
dose: 3.0 mg/kg/injection, schedule: Q01DX015 (ip), vehicle: carboxymethylcellulose (CMC)
  T/C: 112 % of control
dose: 6.0 mg/kg/injection, schedule: Q01DX015 (ip), vehicle: carboxymethylcellulose (CMC)
  T/C: 105 % of control
dose: 12.0 mg/kg/injection, schedule: Q01DX015 (ip), vehicle: carboxymethylcellulose (CMC)
  T/C: 106 % of control
dose: 25.0 mg/kg/injection, schedule: Q01DX015 (ip), vehicle: carboxymethylcellulose (CMC)
  T/C: 110 % of control
dose: 44.0 mg/kg/injection, schedule: Q01DX Z (ip), vehicle: carboxymethylcellulose (CMC)
  T/C: 103 % of control
dose: 50.0 mg/kg/injection, schedule: Q01DX015 (ip), vehicle: carboxymethylcellulose (CMC)
  T/C: 115 % of control
dose: 67.0 mg/kg/injection, schedule: Q01DX Z (ip), vehicle: carboxymethylcellulose (CMC)
  T/C: 113 % of control
dose: 100.0 mg/kg/injection, schedule: Q01DX015 (ip), vehicle: carboxymethylcellulose (CMC)
  T/C: 151 % of control
dose: 100.0 mg/kg/injection, schedule: Q01DX Z (ip), vehicle: carboxymethylcellulose (CMC)
  T/C: 111 % of control
dose: 150.0 mg/kg/injection, schedule: Q01DX Z (ip), vehicle: carboxymethylcellulose (CMC)
  T/C: 122 % of control

## Fc1ccccc1NC1=NCCO1
[2]
  T/C: 101 % of control
[4]
  T/C: 95 % of control
[6]
  T/C: 92 % of control

## c1ccc([Si](c2ccccc2)(c2ccccc2)c2ccc(-c3ccc([Si](c4ccccc4)(c4ccccc4)c4ccccc4)cc3)cc2)cc1
[13]
  T/C: 90 % of control
dose: 400.0 mg/kg/injection, schedule: Q01DX001 (ip), vehicle: saline with Tween-80
  T/C: 88 % of control

## CCCCC/C(=N/N)c1ccc2cc3c(cc2c1)CCCC3
[14]
  T/C: 97 % of control
[15]
  T/C: 95 % of control
[16]
  T/C: 90 % of control

## ClCC1CNC(c2ccccc2)O1 (configuration not stated)
dose: 12.5 mg/kg/injection, schedule: Q04DX003 (ip), vehicle: saline with Tween-80
  T/C: 96 % of control
dose: 25.0 mg/kg/injection, schedule: Q04DX003 (ip), vehicle: saline with Tween-80
  T/C: 101 % of control
dose: 50.0 mg/kg/injection, schedule: Q04DX003 (ip), vehicle: saline with Tween-80
  T/C: 98 % of control
[10]
  T/C: 95 % of control
[11]
  T/C: 93 % of control
[12]
  T/C: 101 % of control

## NC(CSCc1ccccc1)C(=O)O (configuration not stated)
dose: 7.0 mg/kg/injection, schedule: Q01DX015 (ip), vehicle: saline
  T/C: 97 % of control
dose: 15.0 mg/kg/injection, schedule: Q01DX015 (ip), vehicle: saline
  T/C: 97 % of control
dose: 29.0 mg/kg/injection, schedule: Q01DX015 (ip), vehicle: saline
  T/C: 101 % of control
dose: 50.0 mg/kg/injection, schedule: Q01DX001 (ip), vehicle: carboxymethylcellulose (CMC)
  T/C: 89 % of control
dose: 58.0 mg/kg/injection, schedule: Q01DX015 (ip), vehicle: saline
  T/C: 97 % of control
[10]
  T/C: 101 % of control
[2]
  T/C: 100 % of control
dose: 117.0 mg/kg/injection, schedule: Q01DX015 (ip), vehicle: saline
  T/C: 97 % of control
[11]
  T/C: 89 % of control
[4]
  T/C: 94 % of control
dose: 233.0 mg/kg/injection, schedule: Q01DX015 (ip), vehicle: saline
  T/C: 95 % of control
[6]
  T/C: 96 % of control

## O=C(OCCCl)Oc1c(Cl)cc([N+](=O)[O-])cc1[N+](=O)[O-]
[2]
  T/C: 101 % of control
[4]
  T/C: 101 % of control
[6]
  T/C: 86 % of control

## O=C(CS(=O)(=O)O)c1ccc(Br)cc1
[7]
  T/C: 97 % of control
[8]
  T/C: 97 % of control
[9]
  T/C: 94 % of control

## Cc1cn(C2OC(C(O)C(N)=O)C(O)C2O)c(=O)[nH]c1=O (configuration not stated)
[14]
  T/C: 97 % of control
[15]
  T/C: 114 % of control
[16]
  T/C: 101 % of control

## O=[N+]([O-])c1c(Cl)cccc1-c1c[nH]cc1Cl
dose: 100.0 mg/kg/injection, schedule: Q01DX001 (ip), vehicle: other
  T/C: 92 % of control
dose: 200.0 mg/kg/injection, schedule: Q01DX001 (ip), vehicle: other
  T/C: 90 % of control
dose: 400.0 mg/kg/injection, schedule: Q01DX001 (ip), vehicle: other
  T/C: 97 % of control

## COc1cc(C(=O)Nc2ccc(C3=NCCN3)cc2)cc(C(=O)Nc2ccc(C3=NCCN3)cc2)c1
dose: 30.0 mg/kg/injection, schedule: Q01DX Z (ip), vehicle: saline
  T/C: 211 % of control
dose: 60.0 mg/kg/injection, schedule: Q01DX Z (ip), vehicle: saline
  T/C: 275 % of control
dose: 60.0 mg/kg/injection, schedule: Q01DX Z (oral), vehicle: saline
  T/C: 114 % of control
dose: 120.0 mg/kg/injection, schedule: Q01DX Z (ip), vehicle: saline
  T/C: 151 % of control
dose: 120.0 mg/kg/injection, schedule: Q01DX Z (oral), vehicle: saline
  T/C: 119 % of control
dose: 240.0 mg/kg/injection, schedule: Q01DX Z (oral), vehicle: saline
  T/C: 101 % of control
dose: 480.0 mg/kg/injection, schedule: Q01DX Z (oral), vehicle: saline
  T/C: 100 % of control

## O=[N+]([O-])c1cccc(S(=O)(=O)N2CCN(S(=O)(=O)c3cccc([N+](=O)[O-])c3)C2)c1
[1]
  T/C: 95 % of control
[2]
  T/C: 97 % of control
[3]
  T/C: 103 % of control
[4]
  T/C: 93 % of control
[5]
  T/C: 97 % of control
[6]
  T/C: 97 % of control
